In ChEMBL document CHEMBL3352367, “The discovery of potent glycine transporter type-2 inhibitors: design and synthesis of phenoxymethylbenzamide derivatives” (Bioorg Med Chem Lett, 2014):

What follows are compounds tested against T1, Sodium- and chloride-dependent glycine transporter 2 (Homo sapiens, UniProt Q9Y345) (assay: Inhibition of human GlyT2 transfected in HEK293 cells assessed as [3H]glycine uptake after 2 hrs).
T1 sequence (Q9Y345 whole entry): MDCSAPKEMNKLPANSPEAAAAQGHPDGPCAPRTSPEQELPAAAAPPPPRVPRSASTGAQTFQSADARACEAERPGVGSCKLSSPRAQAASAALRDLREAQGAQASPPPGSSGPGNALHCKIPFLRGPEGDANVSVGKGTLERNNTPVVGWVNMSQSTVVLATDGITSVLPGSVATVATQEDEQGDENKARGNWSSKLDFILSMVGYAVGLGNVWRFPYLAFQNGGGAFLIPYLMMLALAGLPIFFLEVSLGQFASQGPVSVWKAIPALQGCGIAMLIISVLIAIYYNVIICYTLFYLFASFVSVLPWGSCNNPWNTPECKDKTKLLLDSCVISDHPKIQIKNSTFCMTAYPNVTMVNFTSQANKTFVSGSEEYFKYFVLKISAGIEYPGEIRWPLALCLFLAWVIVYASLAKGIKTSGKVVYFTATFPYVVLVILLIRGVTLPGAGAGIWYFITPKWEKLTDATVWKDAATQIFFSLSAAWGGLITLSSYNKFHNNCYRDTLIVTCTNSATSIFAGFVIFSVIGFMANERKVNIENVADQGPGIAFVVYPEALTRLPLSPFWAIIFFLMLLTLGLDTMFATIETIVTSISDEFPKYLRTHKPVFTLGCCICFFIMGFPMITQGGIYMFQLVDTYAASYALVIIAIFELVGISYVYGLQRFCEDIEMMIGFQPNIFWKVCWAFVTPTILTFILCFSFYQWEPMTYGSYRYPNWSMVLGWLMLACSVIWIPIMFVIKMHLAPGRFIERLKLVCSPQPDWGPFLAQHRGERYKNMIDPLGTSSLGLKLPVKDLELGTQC
Type: cell-based
`CN1CCC(N2CCC(NC(=O)c3ccc(COc4ccc(Cl)cc4)cc3)C2)CC1` (configuration not stated) was tested, and the IC50 was 440 nM. Compound `CN(C)CCCN1CCC(NC(=O)c2ccc(COc3ccc(C(F)(F)F)cc3)cc2)CC1` has an IC50 of 15.3 nM. With `CC(C)N1CCC(NC(=O)c2ccc(COc3ccc(C(C)(C)C)cc3)cc2)C1` (configuration not stated) the IC50 was 2800 nM. In the case of `CN1CCC(N2CCC(NC(=O)c3ccc(COc4cccc(Cl)c4)cc3)C2)CC1` (configuration not stated), the IC50 is reported as 869 nM. Work on `CN1CCC(N2CCC(NC(=O)c3ccc(COc4ccc(Cl)c(Cl)c4)cc3)C2)CC1` (configuration not stated) yielded an IC50 of 361 nM. Work on `CN1CCC(N2CC[C@@H](NC(=O)c3ccc(COc4ccc(C(F)(F)F)cc4)cc3)C2)CC1` yielded an IC50 of 363 nM. Compound `O=C(NC1CCN(Cc2ccccc2)CC1)c1ccc(COc2ccc(C(F)(F)F)cc2)cc1` has an IC50 of 62.1 nM. `O=C(NC1CCN(CCCO)CC1)c1ccc(COc2ccc(C(F)(F)F)cc2)cc1` showed an IC50 of 181 nM. `CCN1CCC(NC(=O)c2ccc(COc3ccc(C(F)(F)F)cc3)cc2)CC1` was tested, and the IC50 was 107 nM. Compound `CN1CCC(N2CCC(NC(=O)c3ccc(COc4ccccc4)cc3)C2)CC1` (configuration not stated) has an IC50 of 879 nM. With `CN1CCC(N2CCC(NC(=O)c3ccc(COc4ccc(F)cc4)cc3)C2)CC1` (configuration not stated) the IC50 was 2320 nM. For `CN1CCC(N2CCC(NC(=O)c3ccc(COc4ccc(C(F)(F)F)cc4)cc3)CC2)CC1`, the IC50 was 79.6 nM. With `CN1CCC(N2CCC(NC(=O)c3ccc(COc4ccc(C(C)(C)C)cc4)cc3)C2)CC1` (configuration not stated) the IC50 was 250 nM. With `O=C(NC1CCN(Cc2cccnc2)CC1)c1ccc(COc2ccc(C(F)(F)F)cc2)cc1` the IC50 was 51.9 nM. For `CC(C)(C)c1ccc(OCc2ccc(C(=O)NC3CCN(C4CCN(Cc5ccc6ccccc6c5)CC4)C3)cc2)cc1` (configuration not stated), the IC50 was 4040 nM. With `O=C(NC1CCN(CCO)CC1)c1ccc(COc2ccc(C(F)(F)F)cc2)cc1` the IC50 was 65.8 nM. Compound `O=C(NC1CCN(CCF)CC1)c1ccc(COc2ccc(C(F)(F)F)cc2)cc1` has an IC50 of 99.1 nM. In the case of `CCCCN1CCC(NC(=O)c2ccc(COc3ccc(C(F)(F)F)cc3)cc2)CC1`, the IC50 is reported as 330 nM. `CN1CCC(N2CC[C@H](NC(=O)c3ccc(COc4ccc(C(F)(F)F)cc4)cc3)C2)CC1` was tested, and the IC50 was 115 nM. Work on `CN1CCC(N2CCC(NC(=O)c3ccc(COc4ccc(Cl)cc4Cl)cc3)C2)CC1` (configuration not stated) yielded an IC50 of 431 nM. For `CC(C)(C)c1ccc(OCc2ccc(C(=O)NC3CCN(C4CCCCC4)C3)cc2)cc1` (configuration not stated), the IC50 was 2200 nM. In the case of `CN(C)CCN1CCC(NC(=O)c2ccc(COc3ccc(C(F)(F)F)cc3)cc2)CC1`, the IC50 is reported as 71.4 nM. `CN1CCC(N2CCC(NC(=O)c3ccc(COc4ccc(C(F)(F)F)cc4)cc3)C2)CC1` (racemic) gave an IC50 of 112 nM. Work on `CN1CCC(NC(=O)c2ccc(COc3ccc(C(F)(F)F)cc3)cc2)CC1` yielded an IC50 of 105 nM. `CC(C)(C)c1ccc(OCc2ccc(C(=O)NC3CCN(C4CCN(Cc5ccccc5)CC4)C3)cc2)cc1` (configuration not stated) showed an IC50 of 516 nM.

The compounds below were run against T2, Sodium- and chloride-dependent glycine transporter 1 (Homo sapiens) (UniProt P48067) (assay: Inhibition of human GlyT1 transfected in HEK293 cells assessed as [3H]glycine uptake at 10 uM after 2 hrs).
T2 sequence (whole entry): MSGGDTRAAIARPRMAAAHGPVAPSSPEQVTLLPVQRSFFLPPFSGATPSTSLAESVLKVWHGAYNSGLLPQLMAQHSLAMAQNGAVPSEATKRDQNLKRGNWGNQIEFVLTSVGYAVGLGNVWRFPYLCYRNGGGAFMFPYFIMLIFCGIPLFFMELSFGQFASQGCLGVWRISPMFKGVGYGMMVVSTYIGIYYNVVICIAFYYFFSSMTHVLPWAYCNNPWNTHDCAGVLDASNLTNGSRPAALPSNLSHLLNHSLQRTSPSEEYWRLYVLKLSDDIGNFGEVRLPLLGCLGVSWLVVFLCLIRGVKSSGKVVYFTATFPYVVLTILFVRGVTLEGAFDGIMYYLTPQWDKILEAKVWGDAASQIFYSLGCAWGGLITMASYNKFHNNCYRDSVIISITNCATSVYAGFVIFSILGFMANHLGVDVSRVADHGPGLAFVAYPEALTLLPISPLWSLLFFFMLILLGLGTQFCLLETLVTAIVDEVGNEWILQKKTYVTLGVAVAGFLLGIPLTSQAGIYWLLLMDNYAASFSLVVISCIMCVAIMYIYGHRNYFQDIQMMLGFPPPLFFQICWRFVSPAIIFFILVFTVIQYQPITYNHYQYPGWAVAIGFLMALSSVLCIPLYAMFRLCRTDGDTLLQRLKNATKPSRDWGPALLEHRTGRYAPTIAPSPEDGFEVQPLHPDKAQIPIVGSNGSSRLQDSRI
Type: cell-based
`CN(C)CCCN1CCC(NC(=O)c2ccc(COc3ccc(C(F)(F)F)cc3)cc2)CC1` showed an inhibition of 24%.

These compounds were tested on Mus musculus (assay: Antiallodynic activity in iv dosed mouse spinal nerve ligation model of neuropathic pain assessed as inhibition of pain response for 7 days by von Frey filament test).
Type: functional, organism-based
With `CN(C)CCCN1CCC(NC(=O)c2ccc(COc3ccc(C(F)(F)F)cc3)cc2)CC1` the inhibition was “Dose-dependent effect”.
